biological target: T1, Recombinant Human SSAO/VAP-1/AOC3 (Homo sapiens, UniProt Q16853); test: Human Semicarbazide-Sensitive Amine Oxidase (SSAO) Assay; type: biochemical; conditions: recombinant enzyme, 30 minutes preincubation at 37° C., benzylamine substrate, Amplex Ultra Red/HRP fluorescence
T1 construct: purchased R&D systems 3957-AO
T1 sequence (Q16853 1-763): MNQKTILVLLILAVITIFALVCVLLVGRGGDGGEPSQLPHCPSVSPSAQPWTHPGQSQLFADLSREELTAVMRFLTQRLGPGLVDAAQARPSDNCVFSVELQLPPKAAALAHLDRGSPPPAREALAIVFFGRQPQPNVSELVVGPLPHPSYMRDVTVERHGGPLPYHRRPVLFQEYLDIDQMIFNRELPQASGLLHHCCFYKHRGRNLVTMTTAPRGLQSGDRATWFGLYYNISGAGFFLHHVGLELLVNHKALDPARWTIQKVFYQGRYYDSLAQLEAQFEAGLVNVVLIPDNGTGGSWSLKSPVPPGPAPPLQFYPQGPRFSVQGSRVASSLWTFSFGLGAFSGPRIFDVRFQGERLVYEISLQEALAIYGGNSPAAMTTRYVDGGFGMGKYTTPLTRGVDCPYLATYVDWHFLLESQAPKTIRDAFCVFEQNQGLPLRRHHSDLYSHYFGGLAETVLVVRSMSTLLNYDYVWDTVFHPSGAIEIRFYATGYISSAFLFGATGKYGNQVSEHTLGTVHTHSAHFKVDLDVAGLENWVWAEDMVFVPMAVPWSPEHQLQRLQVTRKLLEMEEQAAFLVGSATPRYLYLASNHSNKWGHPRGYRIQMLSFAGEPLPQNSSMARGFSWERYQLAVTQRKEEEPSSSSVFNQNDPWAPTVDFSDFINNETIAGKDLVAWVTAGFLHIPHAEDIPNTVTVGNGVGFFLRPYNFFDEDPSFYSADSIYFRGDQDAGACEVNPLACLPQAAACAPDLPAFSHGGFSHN
In short: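 IC50 from kinetic Amplex Ultra Red/HRP fluorescence (ex 544, em 590 nm, 30-120 min) after benzylamine addition. Beforehand, 6-10 compound dilutions were preincubated 30 min at 37 °C with recombinant human SSAO in 50 mM HEPES (enzyme working concentration 2.5 μg/ml).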

Compound	IC50
NC/C(=C\F)COc1ccc(C23CCC(C(=O)NC4CCN(c5ccccn5)CC4)(CC2)CC3)cc1 [Compound 2.117, (E)-4-(4-((2-(aminomethyl)-3-fluoroallyl)oxy)phenyl)-N-(1-(pyridin-2-yl)piperidin-4-yl)bicyclo[2.2.2]octane-1-carboxamide]	≤ 10 nM
COc1ccc(CNC(=O)C23CCC(c4ccc(OC/C(=C/F)CN)cc4)(CC2)CC3)cc1 [Compound 2.118, (E)-4-(4-((2-(aminomethyl)-3-fluoroallyl)oxy)phenyl)-N-(4-methoxybenzyl)bicyclo[2.2.2] octane-1-carboxamide]	≤ 10 nM
COc1cccc(CCNC(=O)C23CCC(c4ccc(OC/C(=C/F)CN)cc4)(CC2)CC3)c1 [Compound 2.119, (E)-4-(4-((2-(aminomethyl)-3-fluoroallyl)oxy)phenyl)-N-(3-methoxyphenethyl)bicyclo [2.2.2]octane-1-carboxamide]	≤ 10 nM
NC/C(=C\F)COc1ccc(C23CCC(C(=O)NCCOC4CCC4)(CC2)CC3)cc1 [Compound 2.120, (E)-4-(4-((2-(aminomethyl)-3-fluoroallyl)oxy)phenyl)-N-(2-cyclobutoxyethyl)bicyclo [2.2.2]octane-1-carboxamide]	≤ 10 nM
COc1cccc(CNC(=O)C23CCC(c4ccc(OC/C(=C/F)CN)cc4)(CC2)CC3)c1 [Compound 2.127, (E)-4-(4-((2-(aminomethyl)-3-fluoroallyl)oxy)phenyl)-N-(3-methoxybenzyl)bicyclo[2.2.2] octane-1-carboxamide]	≤ 10 nM
COc1ccccc1CNC(=O)C12CCC(c3ccc(OC/C(=C/F)CN)cc3)(CC1)CC2 [Compound 2.128, (E)-4-(4-((2-(aminomethyl)-3-fluoroallyl)oxy)phenyl)-N-(2-methoxybenzyl)bicyclo[2.2.2] octane-1-carboxamide]	≤ 10 nM
NC/C(=C\F)COc1ccc(C23CCC(C(=O)NCc4cnccn4)(CC2)CC3)cc1 [Compound 2.129, (E)-4-(4-((2-(aminomethyl)-3-fluoroallyl)oxy)phenyl)-N-(pyrazin-2-ylmethyl)bicyclo[2.2.2]octane-1-carboxamide]	≤ 10 nM
COc1cccc(CNC(=O)C23CCC(c4ccc(OC/C(=C/F)CN)cc4)(CC2)CC3)n1 [Compound 2.130, (E)-4-(4-((2-(aminomethyl)-3-fluoroallyl)oxy)phenyl)-N-((6-methoxypyridin-2-yl)methyl)bicyclo[2.2.2]octane-1-carboxamide]	≤ 10 nM
COc1cc(CNC(=O)C23CCC(c4ccc(OC/C(=C/F)CN)cc4)(CC2)CC3)ccn1 [Compound 2.134, (E)-4-(4-((2-(aminomethyl)-3-fluoroallyl)oxy)phenyl)-N-((2-methoxpyridin-4-yl)methyl)bicyclo[2.2.2]octane-1-carboxamide]	≤ 10 nM
COc1ncccc1CNC(=O)C12CCC(c3ccc(OC/C(=C/F)CN)cc3)(CC1)CC2 [Compound 2.137, (E)-4-(4-((2-(aminomethyl)-3-fluoroallyl)oxy)phenyl)-N-((2-methoxypyridin-3-yl)methyl)bicyclo[2.2.2]octane-1-carboxamide]	≤ 10 nM

Second part, the compound after the results:

IC50	Compound
≤ 10 nM	CO[C@H]1CCN(C(=O)C23CCC(c4ccc(OC/C(=C/F)CN)cc4)(CC2)CC3)C1 [Compound 2.121, (S,E)-(4-(4-((2-(aminomethyl)-3-fluoroallyl)oxy)phenyl)bicyclo [2.2.2]octan-1-yl)(3-methoxypyrrolidin-1-yl)methanone]
≤ 10 nM	NC/C(=C\F)COc1ccc(C23CCC(C(=O)Nc4ccncn4)(CC2)CC3)cc1 [Compound 2.122, (E)-4-(4-((2-(aminomethyl)-3-fluoroallyl)oxy)phenyl)-N-(pyrimidin-4-yl)bicyclo[2.2.2]octane-1-carboxamide]
≤ 10 nM	CO[C@H](C)CNC(=O)C12CCC(c3ccc(OC/C(=C/F)CN)cc3)(CC1)CC2 [Compound 2.123, (R,E)-4-(4-((2-(aminomethyl)-3-3-fluoroallyl)oxy)phenyl)-N-(2-methoxypropyl)bicyclo[2.2.2] octane-1-carboxamide]
≤ 10 nM	COC[C@H]1C[C@@H](NC(=O)C23CCC(c4ccc(OC/C(=C/F)CN)cc4)(CC2)CC3)C1 [Compound 2.124, 4-(4-(((E)-2-(aminomethyl)-3-fluoroallyl)oxy)phenyl)-N-((1s,3s)-3-(methoxymethyl)cyclobutyl) bicyclo[2.2.2]octane-1-carboxamide]
≤ 10 nM	CO[C@@H](C)CNC(=O)C12CCC(c3ccc(OC/C(=C/F)CN)cc3)(CC1)CC2 [Compound 2.125, (S,E)-4-(4-((2-(aminomethyl)-3-3-fluoroallyl)oxy)phenyl)-N-(2-methoxypropyl)bicyclo[2.2.2] octane-1-carboxamide]
≤ 10 nM	COC[C@H]1C[C@H](NC(=O)C23CCC(c4ccc(OC/C(=C/F)CN)cc4)(CC2)CC3)C1 [Compound 2.126, 4-(4-(((E)-2-(aminomethyl)-3-fluoroallyl)oxy)phenyl)-N-((1r,3r)-3-(methoxymethyl)cyclobutyl) bicyclo[2.2.2]octane-1-carboxamide]
≤ 10 nM	NC/C(=C\F)COc1ccc(C23CCC(C(=O)NC4CCC5(CCOCC5)CC4)(CC2)CC3)cc1 [Compound 2.131, (E)-4-(4-((2-(aminomethyl)-3-fluoroallyl)oxy)phenyl)-N-(3-oxaspiro[5.5]undecan-9-yl)bicyclo[2.2.2]octane-1-carboxamide]
≤ 10 nM	COCC(C)(C)CNC(=O)C12CCC(c3ccc(OC/C(=C/F)CN)cc3)(CC1)CC2 [Compound 2.132, (E)-4-(4-((2-(aminomethyl)-3-fluoroallyl)oxy)phenyl)-N-(3-methoxy-2,2-dimethylpropyl)bicyclo[2.2.2] octane-1-carboxamide]
≤ 10 nM	CO[C@@H]1CCN(C(=O)C23CCC(c4ccc(OC/C(=C/F)CN)cc4)(CC2)CC3)C1 [Compound 2.133, (R,E)-(4-(4-((2-(aminomethyl)-3-fluoroallyl)oxy)phenyl)bicyclo[2.2.2]octan-1-yl)(3-methoxypyrrolidin-1-yl)methanone]
≤ 10 nM	NC/C(=C\F)COc1ccc(C23CCC(C(=O)NC4CC(F)(F)C4)(CC2)CC3)cc1 [Compound 2.135, (E)-4-(4-((2-(aminomethyl)-3-fluoroallyl)oxy)phenyl)-N-(3,3-difluorocyclobutyl)bicyclo[2.2.2] octane-1-carboxamide]
≤ 10 nM	CC1(C)CC(NC(=O)C23CCC(c4ccc(OC/C(=C/F)CN)cc4)(CC2)CC3)C1 [Compound 2.136, (E)-4-(4-((2-(aminomethyl)-3-fluoroallyl)oxy)phenyl)-N-(3,3-dimethylcyclobutyl)bicyclo [2.2.2]octane-1-carboxamide]
≤ 10 nM	COC(C)(C)CCNC(=O)C12CCC(c3ccc(OC/C(=C/F)CN)cc3)(CC1)CC2 [Compound 2.138, (E)-4-(4-((2-(aminomethyl)-3-fluoroallyl)oxy)phenyl)-N-(3-methoxy-3-methylbutyl)bicyclo[2.2.2] octane-1-carboxamide]
≤ 10 nM	NC/C(=C\F)COc1ccc(C23CCC(C(=O)NCc4ccnnc4)(CC2)CC3)cc1 [Compound 2.139, (E)-4-(4-((2-(aminomethyl)-3-fluoroallyl)oxy)phenyl)-N-(pyridazin-4-ylmethyl)bicyclo[2.2.2]octane-1-carboxamide]
